According to patent US20200323213A1, “Methods of use for compositions comprising biguanide compound and diol surfactant” (3M INNOVATIVE PROPERTIES COMPANY, priority 2014, published 2020):

Key:
[1] = test system: Staphylococcus aureus strain 15981; test: Antimicrobial efficacy test: survival of planktonic S. aureus after short exposure; format: cell-based; conditions: 0.1wt-% of CHG, alone or in combination with DYNOL (text summary, matches Table 4)
From the text: The composition described herein can reduce and eliminate Staphylococcus aureus and Pseudomonas aeruginosa. Those of ordinary skill in the art will readily determine when a composition provides antimicrobial activity using assay and bacterial screening methods well known in the art. For example, the compositions can be evaluated utilizing Antimicrobial Efficacy Test described in the Examples Section. Briefly, a bacterial suspension is introduced into a liquid composition. After a sufficient contact time, the sample containing the exposed bacteria is collected, placed in neutralizing broth, a sample is taken and diluted, and plated on growth medium. The plated sample is incubated at an appropriate temperature and humidity for twenty four to forty-eight hours and the number of viable bacterial colonies growing on the plate is counted. Once colonies have been counted the reduction in the number of bacteria caused by the test composition is readily determined. Bacterial reduction is generally reported as log10 reduction determined by the difference between the log10 of the initial inoculum count (i.e. the control) and the log10 of the inoculum count after exposure. […]

[2] = cited from earlier work

| SMILES | log10 reduction [1] | solubility in aqueous fluid [2] [g/100 ml] |
| --- | --- | --- |
| N=C(NCCCCCCNC(=N)NC(=N)Nc1ccc(Cl)cc1)NC(=N)Nc1ccc(Cl)cc1.O=C(O)[C@H](O)[C@@H](O)[C@H](O)[C@H](O)CO.O=C(O)[C@H](O)[C@@H](O)[C@H](O)[C@H](O)CO [CHG, chlorhexidine digluconate] | 0.32 | – |
| CC(=O)O.CC(=O)O.NC(=N\CCCCCC/N=C(N)/N=C(\N)Nc1ccc(Cl)cc1)/N=C(\N)Nc1ccc(Cl)cc1 [diacetate] | – | 1.9 |
